Molecules are shown by their SMILES. Active and inactive are the calls of the source.

In data set [1] the test system is Mus musculus. In words: Analgesic activity in MSU-induced C57 mouse model of gouty arthritis assessed as increase in pain threshold at 10 to 30 mg/kg, ip preadministered with compound for 3 days followed by MSU injection and measured after 24 hrs by von frey test. To be noted: dose 10-30 mg/kg, time 4.0 day. It is filed as functional, organism-based.
Data set [2] addresses T1, NACHT, LRR and PYD domains-containing protein 3 (Homo sapiens, UniProt Q96P20). In words: Binding affinity to CM5 chip immobilized NLRP3 (unknown origin) assessed as dissociation constant by SPR analysis. For orientation: In SPR one partner is held on a chip, and binding of the other changes the refractive index at the surface.
The subject of data set [3] is Mus musculus. In words: Anti-inflammatory activity in LPS-induced C57 sepsis mouse model assessed as reduction in inflammatory infiltration in liver at 10 to 30 mg/kg, ip preadministered with compound for 30 mins followed by LPS stimulation and measured after 6 hrs by H&E staining based analysis. Format: functional, organism-based. The settings on record: dose 10-30 mg/kg, time 6.5 hrs.

The target in data set [4] is NACHT, LRR and PYD domains-containing protein 3 (Mus musculus) (UniProt Q8R4B8). As to the kind of experiment: Inhibition of NLRP3 inflammasome activation in C57 mouse BMDM cells assessed as reduction in IL-1beta secretion at 5 uM preincubated with LPS for 3 hrs followed by compound addition for 30 mins prior to nigericin addition and measured after 30 mins by Western blot analysis. It is filed as cell-based. To be noted: time 1.0 hrs. Background: A western blot detects proteins with antibodies after separation by electrophoresis.

For data set [5] the target is unchanged. In words: Inhibition of NLRP3 inflammasome activation in C57 mouse BMDM cells assessed as reduction in caspase-1 maturation at 5 uM preincubated with LPS for 3 hrs followed by compound addition for 30 mins prior to ATP addition and measured after 30 mins by Western blot analysis. To be noted: time 1.0 hrs. Format: cell-based.
The subject of data set [6] is Mus musculus. In words: Anti-inflammatory activity in LPS-induced C57 sepsis mouse model assessed as reduction in serum IL-1beta level at 10 to 30 mg/kg, ip preadministered with compound for 30 mins followed by LPS stimulation and measured after 6 hrs by ELISA. Format: functional, organism-based. The settings on record: dose 10-30 mg/kg, time 6.5 hrs.
The target of data set [7] is NACHT, LRR and PYD domains-containing protein 3 (Mus musculus) (UniProt Q8R4B8). In words: Inhibition of NLRP3 inflammasome activation in LPS/Nigericin induced C57 mouse BMDM cells assessed as reduction in active caspase-1 in cell supernatant at 2.5 to 10 uM preincubated with LPS for 3 hrs followed by compound addition for 30 mins prior to nigericin addition and measured after 30 mins by Western blot analysis. It is filed as cell-based. To be noted: dose 2.5-10 µM, time 1.0 hrs.

Data set [8] concerns Mus musculus. As to the kind of experiment: Anti-inflammatory activity in MSU-induced C57 mouse model of gouty arthritis assessed as reduction in AUC of foot swelling at 30 mg/kg, ip preadministered with compound for 3 days followed by MSU injection and measured after 24 hrs. The settings on record: time 4.0 day. Format: functional, organism-based.
The target in data set [9] is T1, NACHT, LRR and PYD domains-containing protein 3. As to the kind of experiment: Inhibition of NLRP3 inflammasome activation in […]-differentiated human THP-1 cells assessed as effect on chloride efflux at 2.5 to 10 uM preincubated with LPS for 3 hrs followed by compound addition for 30 mins prior to nigericin addition and measured after 30 mins by fluorescence based analysis. The settings on record: dose 2.5-10 µM, time 1.0 hrs. Format: cell-based.

Data set [10] deals with THP-1. In words: Cytotoxicity against PMA-differentiated human THP-1 cells assessed as reduction in cell viability upto 50 uM incubated for 24 hrs by CCK8 assay. The settings on record: thp-1, 24 h. Format: toxicity, cell-based. In general terms: Formazan colour is commonly taken as a measure of viable cells.
For data set [11], the system named is BMDM. As to the kind of experiment: Effect on TNF-alpha secretion in LPS/Nigericin induced C57 mouse BMDM cells at 1.25 to 10 uM preincubated with LPS for 3 hrs followed by compound addition for 30 mins prior to nigericin addition and measured after 30 mins by ELISA. Format: functional, cell-based. To be noted: dose 1.25-10 µM, time 1.0 hrs.
The target of data set [12] is NACHT, LRR and PYD domains-containing protein 3 (Mus musculus) (UniProt Q8R4B8). As to the kind of experiment: Inhibition of NLRP3 inflammasome activation in LPS/Nigericin induced C57 mouse BMDM cells assessed as reduction in pro-caspase-1(p45) expression in cell supernatant at 2.5 to 10 uM preincubated with LPS for 3 hrs followed by compound addition for 30 mins prior to nigericin addition and measured after 30 mins by Western blot analysis. It is filed as cell-based. To be noted: dose 2.5-10 µM, time 1.0 hrs.

Data set [13] addresses T1, NACHT, LRR and PYD domains-containing protein 3. As to the kind of experiment: Inhibition of NLRP3 inflammasome activation in […]-differentiated human THP-1 cells assessed as effect on potassium efflux at 2.5 to 10 uM preincubated with LPS for 3 hrs followed by compound addition for 30 mins prior to nigericin addition and measured after 30 mins by fluorescence based analysis. It is filed as cell-based. To be noted: dose 2.5-10 µM, time 1.0 hrs.

Data set [14] deals with BMDM. As to the kind of experiment: Cytotoxicity against C57 mouse BMDM cells assessed as reduction in cell viability upto 50 uM incubated for 24 hrs by CCK8 assay. Format: toxicity, cell-based.
The target in data set [15] is T2, Interferon-inducible protein AIM2 (Mus musculus) (UniProt Q91VJ1).
T2 sequence (whole entry): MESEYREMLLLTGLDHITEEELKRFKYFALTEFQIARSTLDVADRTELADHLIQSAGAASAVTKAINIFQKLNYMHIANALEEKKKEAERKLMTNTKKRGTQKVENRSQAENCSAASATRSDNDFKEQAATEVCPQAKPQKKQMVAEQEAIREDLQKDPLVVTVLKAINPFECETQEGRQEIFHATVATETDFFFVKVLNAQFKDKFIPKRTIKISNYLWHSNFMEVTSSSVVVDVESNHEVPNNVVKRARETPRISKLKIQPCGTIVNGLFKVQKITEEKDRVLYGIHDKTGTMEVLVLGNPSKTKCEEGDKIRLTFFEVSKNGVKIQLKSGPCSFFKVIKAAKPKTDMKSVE
In words: Inhibition of AIM2 inflammasome activation in C57 mouse BMDM cells assessed as reduction in caspase-1 maturation at 5 uM preincubated with LPS for 3 hrs followed by poly(dA:dT) stimulation for 4 hrs by Western blot analysis. It is filed as cell-based.

The target in data set [16] is NACHT, LRR and PYD domains-containing protein 3 (Mus musculus) (UniProt Q8R4B8). In words: Inhibition of NLRP3 inflammasome activation in LPS/Nigericin induced C57 mouse BMDM cells assessed as reduction in ASC expression in cell supernatant at 2.5 to 10 uM preincubated with LPS for 3 hrs followed by compound addition for 30 mins prior to nigericin addition and measured after 30 mins by Western blot analysis. It is filed as cell-based. The settings on record: dose 2.5-10 µM, time 1.0 hrs.

Data set [17] has the same target. As to the kind of experiment: Inhibition of NLRP3 inflammasome assembly in C57 mouse BMDM cells assessed as reduction in ASC monomer at 2.5 to 10 uM preincubated with LPS for 3 hrs followed by compound addition for 30 mins prior to nigericin addition and measured after 30 mins by blotting analysis. Format: cell-based. The settings on record: dose 2.5-10 µM, time 1.0 hrs.

Data set [18] concerns the target T1, NACHT, LRR and PYD domains-containing protein 3. As to the kind of experiment: Inhibition of NLRP3 inflammasome activation in […]-differentiated human THP-1 cells assessed as effect on ROS production at 10 uM preincubated with LPS for 3 hrs followed by compound addition for 30 mins prior to nigericin addition and measured after 30 mins by MitoSOX dye/Hoechst 33342 staining based confocal microscopic analysis. It is filed as cell-based. The settings on record: time 1.0 hrs.

Data set [19] has as its target NACHT, LRR and PYD domains-containing protein 3 (Mus musculus) (UniProt Q8R4B8). As to the kind of experiment: Inhibition of NLRP3 inflammasome assembly in C57 mouse BMDM cells assessed as effect on ASC binding at 2.5 to 10 uM preincubated with LPS for 3 hrs followed by compound addition for 30 mins prior to nigericin addition and measured after 30 mins by immunoprecipitation. It is filed as cell-based. The settings on record: dose 2.5-10 µM, time 1.0 hrs.

The target is the same in data set [20]. In words: Inhibition of NLRP3 inflammasome assembly in C57 mouse BMDM cells assessed as effect on NEK7 binding at 2.5 to 10 uM preincubated with LPS for 3 hrs followed by compound addition for 30 mins prior to nigericin addition and measured after 30 mins by immunoprecipitation. It is filed as cell-based. The settings on record: dose 2.5-10 µM, time 1.0 hrs.

For data set [21] the target is unchanged. In words: Inhibition of NLRP3 inflammasome activation in C57 mouse BMDM cells assessed as reduction in caspase-1 maturation at 5 uM preincubated with LPS for 3 hrs followed by compound addition for 30 mins prior to MSU addition and measured after 4 hrs by Western blot analysis. It is filed as cell-based. The settings on record: time 4.5 hrs.

Chain of NACHT, LRR and PYD domains-containing protein 3 (Mus musculus) (Q8R4B8 whole entry, the tested form may be a part): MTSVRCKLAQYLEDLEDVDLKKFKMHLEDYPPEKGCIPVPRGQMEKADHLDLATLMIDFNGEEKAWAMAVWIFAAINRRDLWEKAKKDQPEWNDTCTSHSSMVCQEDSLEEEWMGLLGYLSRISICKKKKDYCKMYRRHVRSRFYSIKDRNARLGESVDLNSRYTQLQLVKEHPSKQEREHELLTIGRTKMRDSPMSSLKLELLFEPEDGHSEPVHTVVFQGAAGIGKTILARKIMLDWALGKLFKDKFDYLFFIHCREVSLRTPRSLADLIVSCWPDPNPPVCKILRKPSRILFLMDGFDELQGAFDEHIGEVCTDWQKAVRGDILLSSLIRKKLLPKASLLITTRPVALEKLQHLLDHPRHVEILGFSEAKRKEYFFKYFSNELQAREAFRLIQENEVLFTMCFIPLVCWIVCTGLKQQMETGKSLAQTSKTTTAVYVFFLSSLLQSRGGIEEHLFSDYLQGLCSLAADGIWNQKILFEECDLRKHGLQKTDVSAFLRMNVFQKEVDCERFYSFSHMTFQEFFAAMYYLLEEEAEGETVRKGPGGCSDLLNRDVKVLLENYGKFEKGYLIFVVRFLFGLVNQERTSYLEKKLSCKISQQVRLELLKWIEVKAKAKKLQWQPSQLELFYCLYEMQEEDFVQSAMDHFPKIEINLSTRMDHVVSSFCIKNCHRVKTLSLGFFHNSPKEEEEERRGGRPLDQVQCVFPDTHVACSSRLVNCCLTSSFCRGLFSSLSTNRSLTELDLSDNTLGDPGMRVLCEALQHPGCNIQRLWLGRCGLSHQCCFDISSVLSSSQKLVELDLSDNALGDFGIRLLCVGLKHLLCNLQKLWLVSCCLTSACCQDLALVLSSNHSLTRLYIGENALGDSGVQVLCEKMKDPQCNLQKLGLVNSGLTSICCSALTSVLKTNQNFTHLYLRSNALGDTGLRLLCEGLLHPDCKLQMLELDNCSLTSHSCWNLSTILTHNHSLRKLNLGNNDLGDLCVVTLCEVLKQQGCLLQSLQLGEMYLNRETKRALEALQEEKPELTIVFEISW
T1 sequence (Q96P20 whole entry, the tested form may be a part): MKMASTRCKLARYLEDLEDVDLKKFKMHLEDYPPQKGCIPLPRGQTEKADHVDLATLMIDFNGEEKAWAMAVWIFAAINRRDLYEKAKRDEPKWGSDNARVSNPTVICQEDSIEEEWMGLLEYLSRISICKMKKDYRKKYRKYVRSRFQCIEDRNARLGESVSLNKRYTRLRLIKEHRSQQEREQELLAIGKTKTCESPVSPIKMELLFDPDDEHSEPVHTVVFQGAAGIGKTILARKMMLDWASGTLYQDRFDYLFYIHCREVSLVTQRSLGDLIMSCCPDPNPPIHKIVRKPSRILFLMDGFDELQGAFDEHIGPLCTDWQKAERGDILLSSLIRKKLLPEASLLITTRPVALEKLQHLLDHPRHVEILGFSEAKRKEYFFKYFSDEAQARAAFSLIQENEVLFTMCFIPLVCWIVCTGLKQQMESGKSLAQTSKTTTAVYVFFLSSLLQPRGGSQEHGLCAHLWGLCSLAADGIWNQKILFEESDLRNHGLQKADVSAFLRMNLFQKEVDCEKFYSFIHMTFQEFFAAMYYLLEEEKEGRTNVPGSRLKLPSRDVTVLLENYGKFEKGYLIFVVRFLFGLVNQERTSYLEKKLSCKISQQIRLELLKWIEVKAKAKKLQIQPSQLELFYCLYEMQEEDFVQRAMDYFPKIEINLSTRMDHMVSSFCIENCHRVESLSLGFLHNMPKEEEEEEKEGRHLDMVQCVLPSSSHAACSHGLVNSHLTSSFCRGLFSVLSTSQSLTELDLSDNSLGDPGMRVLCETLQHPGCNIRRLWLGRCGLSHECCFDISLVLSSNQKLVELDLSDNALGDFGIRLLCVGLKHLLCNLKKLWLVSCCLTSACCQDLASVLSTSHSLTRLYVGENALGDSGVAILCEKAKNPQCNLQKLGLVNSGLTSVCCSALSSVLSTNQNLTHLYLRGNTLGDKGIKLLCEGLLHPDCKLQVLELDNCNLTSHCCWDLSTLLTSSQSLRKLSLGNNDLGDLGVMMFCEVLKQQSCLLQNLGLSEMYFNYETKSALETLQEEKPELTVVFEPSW

For `COc1ccc(N2C(=O)/C(=C\c3ccccc3C(F)(F)F)SC2=S)cc1`, the outcome in data set [1], in data set [3], in [6] and in data set [8] was Active. For the same compound, the Kd (commonly the concentration at which binding is half-saturated) in data set [2] came to 7.2 µM. For the same compound, the inhibition entry in data set [4], in data set [5], in data set [7], in [17], in data set [19] and in data set [20] was “Active” in each case. For the same compound, the inhibition result in data set [21] is “Active”. The inhibition entry in data set [9], in [12], in [13], in data set [15], in data set [16] and in [18] was “inactive” each time. The Activity entry in data set [10] and in [14] was “Non-Toxic” each time. The outcome in data set [11] was inactive.

The record behind these values is ChEMBL document CHEMBL5634101, “Discovery of NLRP3 inhibitors using machine learning: Identification of a hit compound to treat NLRP3 activation-driven diseases” (Eur J Med Chem, 2023).
